# Assay results from EP0667959B1, “Methods for identifying inhibitors of the production of beta-amyloid peptide” (ELAN PHARMACEUTICALS, INC., priority 1992, dated 1994).
# What was measured:
# [1] = molecular target: Monoclonal antibodies to the junction region of βAP; assay: Saturation analysis (RIA): displacement of 125I-labeled βAP1-28 from junction-region hybridoma clones by unlabeled peptide; assay type: binding, mice
# Experimental: The RIA method used to screen serum bleeds and fusion hybridoma supernatants was based upon a method developed by Wang et al. (1977) J. Immunol. Methods 18:157-164. Briefly, the supernatant (or serum) was incubated overnight at room temperature on a rotator with ^125I-labeled βAP1-28 and Sepharose® 4B beads to which sheep anti-mouse IgG had been coupled via cyanogen bromide. The beads from each well were harvested onto glass fiber filter discs with a cell harvester and washed several times with PBS. The filter discs were then transferred to gamma tubes and the bound radioactivity was counted in a gamma counter.
# Based on results of the above assays, several clones were expanded into 24 well plates. These clones were further characterized by saturation analysis. Supernatants at the 50% titer point (as determined by the RIA method described above) were added to wells containing Sepharose®-sheep anti-mouse IgG beads, a constant amount of ^125I-labeled βAP1-28, and varying amounts of unlabeled βAP13-28 or βAP17-28. The concentration of cold peptide for 50% inhibition was determined for each antibody. […] The 50% inhibition point for βAP13-28 ranged from 10-80 ng/well. The clones were also characterized based on reactivity in Western blots. Based on titer point, sensitivity (as determined by the 50% inhibition point), and reactivity on Western blot, several clones were produced in ascites.
# [2] = test system: 266 capture antibody and 10D5 reporter antibody; assay: βAP cross-reactivity in 266/10D5 sandwich ELISA; assay type: binding; conditions: molecule at 1-1000 ng/ml
# Experimental: Monoclonal antibody 266 was diluted to a concentration of 5 µg/ml, and monoclonal antibody 067 to 10 µg/ml in a buffer containing NaH2PO4·7H2O, 26.2 g/L; NaN3, 1 g/L; pH 8.3. One hundred µl/well of this solution was then dispensed in a 96 well polystyrene transparent COSTAR plate and incubated overnight at room temperature. Following coating, the remaining solution was aspirated and the non-specific antibody binding sites were blocked with 0.25% human serum albumin (HSA) dissolved in a buffer containing NaH2PO4·H2O, 1 g/L; Na2HPO4·7H2O, 10.8 g/L; NaN3, 0.5 g/L and sucrose, 25 g/L; pH 7.4. These coated/blocked plates were used immediately or dried in a desiccator and stored in a dry container at 4°C for a maximum of 5 days.
# Calibrators containing known amounts of βAP and samples from various bodily or extra bodily fluids were then added to the plate at 100 µl/well. The samples were added undiluted or diluted in a buffer containing NaH2PO4·H2O, 0.2 g/L; Na2HPO4·7H2O, 2.16 g/L; NaN3, 0.5 g/L; BSA (globulin free) 6 g/L; Triton X-405, 0.5 mL/L; NaCl, 8.5 g/L; pH 7.4. Samples and calibrators were incubated in the wells for 1 hour at room temperature, subsequently aspirated, and the wells washed with 300 µl/well of a solution containing NaCl, 80 g/L; KCl, 3.8 g/L; Tris base, 5.85 g/L; Tris HCl, 31.75 g/L; and 0.05% Tween® 20; pH 7.5 (TBS).
# NHS-biotin (15 mg) was dissolved in 0.25 ml dimethylsulfoxide, and 10 µl of this solution was added to 1 mg of 10D5 or 6C6 antibody suspended in 1 ml of sodium carbonate solution, 50 mM, pH 8.5. The mixture was incubated in the dark for 1½ hours at room temperature and then dialyzed against phosphate buffered saline, pH 7.4 for 48 hours at 4°C, to produce biotinylated reporter antibody. One hundred µl/well of the biotinylated reporter antibody (10D5 or 6C6) diluted to 3 µg/ml was then added to each well and incubated for another hour at room temperature. The antibody diluent consisted of Trizma base, 1.21 g/L; NaCl, 29.22 g/L; NaN3, 1.5 g/L, Triton X 405, 0.5 ml/L; PEG (Mw 3350), 40 g/L; Mg Cl2·6H2O, 0.095 g/L; ZnCl2, 0.014 g/L; fetal bovine serum 100 ml/L; and BSA 2.5 g/L, pH 7.4.
# After 1 hour incubation at room temperature with the reporter antibody (10D5 or 6C6) the supernatant was aspirated and the wells were washed three times with 300 µl/well of TBS. Streptavidin alkaline phosphatase (100 µl/well, diluted 1:2000 in the conjugate diluent buffer) was added and incubated for another hour at room temperature. […] Fluorescent substrate (4-methyl-umbellipheryl phosphate in 2-amino-2-methyl […] buffer; pH 9.5; (100 µl/well) was added) and fluorescence read and expressed as relative fluorescent units ([…]) after 15 minutes using a Cytofluor 2300 from Millipore, with 360/40 excitation filter and 460/40 emission filter. […]
Substance,%Cross-Reactivity [2] [%],also measured
"βAP13-28 (HHQKLVFFAEDVGSNK; Amyloid-beta protein 42; UniProt P05067 684-699, looked up, fragment)",,"concentration of cold peptide for 50% inhibition ([1]; range over the clones, supernatants at the 50% titer point, 125I-labeled βAP1-28): 10-80 ng/well"
"βAP17-28 (LVFFAEDVGSNK; Amyloid-beta protein 42; UniProt P05067 688-699, looked up, fragment)",,"inhibition of 125I-labeled βAP1-28 binding ([1]; at 100 ng/well, any clones): no inhibition"
"βAP Fragment 11-18 (EVHHQKLV; Amyloid-beta protein 42; UniProt P05067 682-689, looked up, fragment)",0,
"βAP Fragment 13-18 (HHQKLV; Amyloid-beta protein 42; UniProt P05067 684-689, looked up, fragment)",0,
"βAP Fragment 13-20 (HHQKLVFF; Amyloid-beta protein 42; UniProt P05067 684-691, looked up, fragment)",0.2,
"βAP Fragment 15-20 (QKLVFF; Amyloid-beta protein 42; UniProt P05067 686-691, looked up, fragment)",0,
